Source: PubChem BioAssay AID248 (DTP/NCI, 2004)
“And” between values parts separate entries of the source, which are not always exact repeats. Identical values can stand only once. Toxic doses and inconclusive results are not listed. No stated cut-off is given here; in the data, active means T/C of 150% or more; inactive means T/C below 125%.

Test system: L1210 leukemia ip in BDF1 mice, survival T/C
Assay: NCI In Vivo Anticancer Drug Screen. Data for tumor model L1210 Leukemia (intraperitoneal) in B6D2F1 (BDF1) mice
Conditions: endpoint: mean survival time, higher = longer survival
Summary of the method: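 Value reflects the ratio of survival in compound-treated mice to survival in vehicle-treated controls, with both groups carrying the same transplanted tumor.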

[1] = dose: 100.0 mg/kg/injection, schedule: Q04DX003 (ip), vehicle: saline sonified
[2] = dose: 200.0 mg/kg/injection, schedule: Q04DX003 (ip), vehicle: saline sonified
[3] = dose: 400.0 mg/kg/injection, schedule: Q04DX003 (ip), vehicle: saline sonified
[4] = dose: 50.0 mg/kg/injection, schedule: Q01DX009 (ip), vehicle: saline with Tween-80
[5] = dose: 100.0 mg/kg/injection, schedule: Q04DX002 (ip), vehicle: saline with Tween-80
[6] = dose: 200.0 mg/kg/injection, schedule: Q04DX002 (ip), vehicle: saline with Tween-80
[7] = dose: 400.0 mg/kg/injection, schedule: Q04DX002 (ip), vehicle: saline with Tween-80
[8] = dose: 100.0 mg/kg/injection, schedule: Q01DX009 (ip), vehicle: saline with Tween-80
[9] = dose: 200.0 mg/kg/injection, schedule: Q01DX009 (ip), vehicle: saline with Tween-80
[10] = dose: 25.0 mg/kg/injection, schedule: Q01DX009 (ip), vehicle: Klucel (hydroxypropylcellulose) (HPC)
[11] = dose: 50.0 mg/kg/injection, schedule: Q01DX009 (ip), vehicle: Klucel (hydroxypropylcellulose) (HPC)
[12] = dose: 100.0 mg/kg/injection, schedule: Q01DX009 (ip), vehicle: Klucel (hydroxypropylcellulose) (HPC)
[13] = dose: 100.0 mg/kg/injection, schedule: Q01DX001 (ip), vehicle: saline
[14] = dose: 200.0 mg/kg/injection, schedule: Q01DX001 (ip), vehicle: saline
[15] = dose: 400.0 mg/kg/injection, schedule: Q01DX001 (ip), vehicle: saline
[16] = dose: 100.0 mg/kg/injection, schedule: Q04DX003 (ip), vehicle: saline
[17] = dose: 50.0 mg/kg/injection, schedule: Q01DX009 (ip), vehicle: saline
[18] = dose: 100.0 mg/kg/injection, schedule: Q01DX009 (ip), vehicle: saline
[19] = dose: 100.0 mg/kg/injection, schedule: Q04DX003 (ip), vehicle: Klucel (hydroxypropylcellulose) (HPC)

Measured: T/C

CC(C)n1ncc2c(N)ncnc21
inactive: dose: 7.5 mg/kg/injection, schedule: Q01DX001 (ip), vehicle: saline 107 % of control | dose: 7.5 mg/kg/injection, schedule: Q04DX003 (ip), vehicle: saline 100 % of control | dose: 15.0 mg/kg/injection, schedule: Q01DX001 (ip), vehicle: saline 100 % of control | dose: 15.0 mg/kg/injection, schedule: Q04DX003 (ip), vehicle: saline 97 % of control | dose: 30.0 mg/kg/injection, schedule: Q01DX001 (ip), vehicle: saline 100 % of control | dose: 30.0 mg/kg/injection, schedule: Q04DX003 (ip), vehicle: saline 98 % of control

COC(=O)C12CCc3cc(OC)ccc3C1=CC(=O)C2 (configuration not stated)
inactive: [1] 101 % of control | [2] 95 % of control | [3] 94 % of control

CC1(C)CCc2c(O)c(N=O)c3ccccc3c2O1
inactive: dose: 100.0 mg/kg/injection, schedule: Q01DX001 (ip), vehicle: saline with Tween-80 103 % of control | dose: 200.0 mg/kg/injection, schedule: Q01DX001 (ip), vehicle: saline with Tween-80 95 % of control | dose: 400.0 mg/kg/injection, schedule: Q01DX001 (ip), vehicle: saline with Tween-80 95 % of control

CC1=C2CCCC(=O)C2(C)CCC1=O (configuration not stated)
inactive: dose: 100.0 mg/kg/injection, schedule: Q04DX002 (ip), vehicle: Klucel (hydroxypropylcellulose) (HPC) 107 % of control | dose: 200.0 mg/kg/injection, schedule: Q04DX002 (ip), vehicle: Klucel (hydroxypropylcellulose) (HPC) 96 % of control

CC(C)(C)NC(=O)Oc1ccccc1C(=O)Nc1ccccc1
inactive: [4] 97 % of control and 103 % of control | [5] 101 % of control and 103 % of control | [6] 95 % of control and 98 % of control | [7] 92 % of control

CCCCN1C(=O)N(CCCC)C(=O)C(Br)(Br)C1=O
inactive: [4] 97 % of control | [8] 105 % of control | [9] 97 % of control

CCN(C(=O)CCl)c1ccccc1C
inactive: [4] 91 % of control | [8] 100 % of control

O=C1C=C(S(=O)(=O)c2ccccc2)C(=O)c2ccccc21
inactive: dose: 75.0 mg/kg/injection, schedule: Q01DX001 (ip), vehicle: other 93 % of control | dose: 150.0 mg/kg/injection, schedule: Q01DX001 (ip), vehicle: other 98 % of control

O=C(O)c1cc(Cl)ccn1
inactive: [10] 98 % of control | [11] 102 % of control | [12] 101 % of control and 107 % of control

CC1(C)CCC2(C(=O)OC3OC(CO)C(O)C(O)C3O)CCC3(CO)C(=CCC4C5(C)CC(O)C(O)C(C)(C(=O)OC6OC(CO)C(O)C(O)C6O)C5CCC43C)C2C1 (configuration not stated)
inactive: dose: 75.0 mg/kg/injection, schedule: Q01DX001 (sc), vehicle: steriod suspending solution 101 % of control | dose: 300.0 mg/kg/injection, schedule: Q01DX001 (sc), vehicle: steriod suspending solution 107 % of control

N#Cc1cc2c3c(c1)CCCN3CCC2
inactive: [4] 91 % of control | [8] 93 % of control | [9] 90 % of control | dose: 400.0 mg/kg/injection, schedule: Q01DX009 (ip), vehicle: saline with Tween-80 96 % of control

OC(Cc1ccccc1)(c1ccccc1)C(O)(Cc1ccccc1)c1ccccc1 (configuration not stated)
inactive: dose: 50.0 mg/kg/injection, schedule: Q01DX001 (ip), vehicle: saline 94 % of control | [13] 94 % of control | [14] 94 % of control | [15] 94 % of control

COC(=O)C1C2CC3c4[nH]c5cc(OC)ccc5c4CCN3CC2CC(OC(=O)c2cc(OC)c(OC)c(OC)c2)C1OC (configuration not stated)
inactive: dose: 6.25 mg/kg/injection, schedule: Q01DX009 (ip), vehicle: Klucel (hydroxypropylcellulose) (HPC) 94 % of control | dose: 12.5 mg/kg/injection, schedule: Q01DX009 (ip), vehicle: Klucel (hydroxypropylcellulose) (HPC) 96 % of control | [10] 105 % of control | dose: 25.0 mg/kg/injection, schedule: Q04DX003 (ip), vehicle: saline 106 % of control | [11] 113 % of control | dose: 50.0 mg/kg/injection, schedule: Q04DX003 (ip), vehicle: saline 119 % of control | [16] 111 % of control

COc1ccc(C)cc1NC(=O)OCCOc1ccc(C(C)(C)C)cc1
inactive: [4] 90 % of control | [8] 90 % of control | [9] 90 % of control

Cc1ccc(S(=O)(=O)Oc2ccc(N(CC(=O)O)S(=O)(=O)c3ccc(C)cc3)cc2)cc1
inactive: dose: 100.0 mg/kg/injection, schedule: Q01DX001 (ip), vehicle: water 98 % of control | dose: 100.0 mg/kg/injection, schedule: Q04DX003 (ip), vehicle: water 94 % of control | dose: 200.0 mg/kg/injection, schedule: Q01DX001 (ip), vehicle: water 96 % of control | dose: 200.0 mg/kg/injection, schedule: Q04DX003 (ip), vehicle: water 88 % of control | dose: 400.0 mg/kg/injection, schedule: Q01DX001 (ip), vehicle: water 97 % of control | dose: 400.0 mg/kg/injection, schedule: Q04DX003 (ip), vehicle: water 96 % of control

Cn1nc(NC(=O)C(F)(F)F)c2ncc(-c3ccccc3)nc21
inactive: [8] 96 % of control | [9] 96 % of control

CC(O)C1OC1C(C)O (configuration not stated)
inactive: dose: 25.0 mg/kg/injection, schedule: Q04DX002 (ip), vehicle: saline 93 % of control | dose: 50.0 mg/kg/injection, schedule: Q04DX002 (ip), vehicle: saline 101 % of control | dose: 100.0 mg/kg/injection, schedule: Q04DX002 (ip), vehicle: saline 112 % of control

C1CCC2C(C1)CCC1C3CCCC3OCN21 (configuration not stated)
inactive: [5] 96 % of control | [6] 96 % of control | [7] 93 % of control

Cc1nc(N)ccc1[N+](=O)[O-]
inactive: [1] 98 % of control | [2] 101 % of control | [3] 104 % of control

CSc1nc(N)nc2c1ncn2C1OC(CO)C(O)C1O (configuration not stated)
inactive: dose: 63.0 mg/kg/injection, schedule: Q01DX009 (ip), vehicle: saline 98 % of control | [13] 105 % of control | dose: 108.0 mg/kg/injection, schedule: Q01DX009 (ip), vehicle: saline 98 % of control | dose: 178.0 mg/kg/injection, schedule: Q01DX001 (ip), vehicle: saline 110 % of control | dose: 180.0 mg/kg/injection, schedule: Q01DX009 (ip), vehicle: saline 118 % of control | [14] 112 % of control | dose: 267.0 mg/kg/injection, schedule: Q01DX001 (ip), vehicle: saline 121 % of control

CC(C)=CC(=O)CC(O)(C(F)(F)F)C(F)(F)Cl (configuration not stated)
inactive: [17] 92 % of control | [18] 100 % of control

CCCC/C=C/CCl
inactive: [13] 88 % of control | [16] 102 % of control | [14] 91 % of control | dose: 200.0 mg/kg/injection, schedule: Q04DX003 (ip), vehicle: saline 95 % of control | [15] 90 % of control | dose: 400.0 mg/kg/injection, schedule: Q04DX003 (ip), vehicle: saline 98 % of control

BrC1C2CCC(CC2)C1Br (configuration not stated)
inactive: [12] 92 % of control | [19] 100 % of control | dose: 200.0 mg/kg/injection, schedule: Q01DX009 (ip), vehicle: Klucel (hydroxypropylcellulose) (HPC) 92 % of control | dose: 200.0 mg/kg/injection, schedule: Q04DX003 (ip), vehicle: Klucel (hydroxypropylcellulose) (HPC) 100 % of control | dose: 400.0 mg/kg/injection, schedule: Q01DX009 (ip), vehicle: Klucel (hydroxypropylcellulose) (HPC) 94 % of control | dose: 400.0 mg/kg/injection, schedule: Q04DX003 (ip), vehicle: Klucel (hydroxypropylcellulose) (HPC) 96 % of control

CN(CCCl)Cc1ccccc1
inactive: dose: 8.2 mg/kg/injection, schedule: Q01DX Z (ip), vehicle: methylcellulose (MC) 107 % of control | dose: 18.8 mg/kg/injection, schedule: Q01DX Z (ip), vehicle: methylcellulose (MC) 109 % of control and 112 % of control | [10] 101 % of control | dose: 25.0 mg/kg/injection, schedule: Q01DX009 (ip), vehicle: saline 107 % of control | dose: 28.0 mg/kg/injection, schedule: Q01DX Z (ip), vehicle: methylcellulose (MC) 114 % of control and 121 % of control | [11] 112 % of control | [17] 103 % of control | dose: 50.0 mg/kg/injection, schedule: Q04DX003 (ip), vehicle: Klucel (hydroxypropylcellulose) (HPC) 101 % of control | dose: 63.0 mg/kg/injection, schedule: Q01DX Z (ip), vehicle: methylcellulose (MC) 87 % of control | [18] 97 % of control | [19] 108 % of control
